Measured values taken from patent US20040248887A1, “Inhibitors of cathepsin S” (IRM LLC, priority 2003, published 2004).

biological target: Cathepsin S (Homo sapiens, UniProt P25774); assay: Cathepsin S inhibition, fluorogenic peptide substrate kinetic assay; assay type: biochemical; settings: Table II; Cathepsin S inhibition constant, pH5.5; read-out: Ki Cat. S
In short: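 Reactions were started with 50 μM (final) acetyl-His-Pro-Val-Lys-aminocarbamoylcoumarin, and hydrolysis was followed by fluorescence (ex 380/em 450 nm). Apparent inhibition constants from enzyme progress curves were converted to Ki for competitive inhibitors using substrate concentration and Km.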

Cathepsin S, sequence (P25774 115-331, species assumed): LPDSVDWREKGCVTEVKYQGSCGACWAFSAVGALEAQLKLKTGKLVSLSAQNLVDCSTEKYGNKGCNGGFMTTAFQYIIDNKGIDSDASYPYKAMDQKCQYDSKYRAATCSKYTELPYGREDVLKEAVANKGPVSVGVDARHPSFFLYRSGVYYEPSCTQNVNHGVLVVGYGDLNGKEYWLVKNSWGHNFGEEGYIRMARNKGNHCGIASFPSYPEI

Row | Compound | Ki [nM]
1 | Cc1cccc(C(=O)N[C@@H](Cc2ccccc2)C(=O)NCCN2CCc3cc(F)ccc32)c1 [Compound 205, N-((S)-1-(2-(5-fluoroindolin-1-yl)ethylcarbamoyl)-2-phenylethyl)-3-methylbenzamide] | < 1000
2 | O=C(NCCN1CCc2cc(F)ccc21)[C@H](CC1CCCCC1)NS(=O)(=O)c1ccc(Cl)s1 [Compound 227, (S)-2-(5-Chloro-thiophene-2-sulfonylamino)-3-cyclohexyl-N-[2-(5-fluoro-2,3-dihydro-indol-1-yl)-ethyl]-propionamide] | < 100
3 | COc1cccc(C(=O)N[C@@H](CCC2CCCCC2)C(=O)NCCN2CCc3cc(OCc4ccccc4)ccc32)c1 [Compound 19, (S)-N-{3-Cyclohexyl-1-[2-(5-benzyloxy-2,3-dihydro-indol-1-yl)-ethylcarbamoyl]-propyl}-3-methoxy-benzamide] | < 10000
4 | C[C@@H](CNc1c(F)cccc1F)NC(=O)[C@H](CC1CCCCC1)NC(=O)c1ccc(-c2cccc(F)c2)o1 [Compound 92, 5-(3-Fluoro-phenyl)-furan-2-carboxylic acid {2-cyclohexyl-1-(S)-[2-(2,6-difluoro-phenylamino)-1-(S)-methyl-ethylcarbamoyl]-ethyl}-amide] | < 100
5 | C[C@@H](CNc1ccc(OCc2ccccc2)cc1)NC(=O)[C@H](CC1CCCCC1)NC(=O)c1ccc(-c2cccc(F)c2)o1 [Compound 266, 5-(3-Fluoro-phenyl)-furan-2-carboxylic acid {1-(S)-[2-(4-benzyloxy-phenylamino)-1-(S)-methyl-ethylcarbamoyl]-2-cyclohexyl-ethyl}-amide] | < 100
6 | CS(=O)(=O)N1CCC(Oc2ccc(C(=O)N[C@@H](CC3CCCCC3)C(=O)NCCN3CCc4cc(F)ccc43)cc2)CC1 [Compound 68, N-(S)-{2-cyclohexyl-1-[2-(5-fluoro-2,3-dihydro-indol-1-yl)-ethylcarbamoyl]-ethyl}-4-(1-methanesulfonyl-piperidin-4-yloxy)-benzamide] | < 1000
7 | C[C@@H](CNc1ccc2c(c1)OCO2)NC(=O)[C@H](CC1CCCCC1)NC(=O)c1ccc(-c2cccc(F)c2)o1 [Compound 85, 5-(3-Fluoro-phenyl)-furan-2-carboxylic acid {1-(S)-[2-(benzo[1,3]dioxol-5-ylamino)-1-(S)-methyl-ethylcarbamoyl]-2-cyclohexyl-ethyl}-amide] | < 100
8 | C[C@@H](CNc1cccc(Cl)c1F)NC(=O)[C@H](CC1CCCCC1)NC(=O)c1ccc(-c2cccc(F)c2)o1 [Compound 96, 5-(3-Fluoro-phenyl)-furan-2-carboxylic acid {1-(S)-[2-(3-chloro-2-fluoro-phenylamino)-1-(S)-methyl-ethylcarbamoyl]-2-cyclohexyl-ethyl}-amide] | < 1000
9 | Cc1nc(-c2ccc(S(=O)(=O)N[C@@H](CC3CCCCC3)C(=O)NCCN3CCc4cc(F)ccc43)s2)cs1 [Compound 237, (S)-3-Cyclohexyl-N-[2-(5-fluoro-2,3-dihydro-indol-1-yl)-ethyl]-2-[5-(2-methyl-thiazol-4-yl)-thiophene-2-sulfonylamino]-propionamide] | < 100
10 | O=C(N[C@@H](CC1CCCCC1)C(=O)NCCN1CCc2cc(F)ccc21)C1CC1 [Compound 14, Cyclopropanecarboxylic acid (S)-{2-cyclohexyl-1-[2-(5-fluoro-2,3-dihydro-indol-1-yl)-ethylcarbamoyl]-ethyl}-amide] | < 100
11 | Cc1cccc(C(=O)N[C@H](C(=O)NCCN2CCc3cc(F)ccc32)C2CCCCC2)c1 [Compound 193, N-((S)-(2-(5-fluoroindolin-1-yl)ethylcarbamoyl)(cyclohexyl)methyl)-3-methylbenzamide] | < 1000
12 | COc1ccc(S(=O)(=O)N[C@@H](CC2CCCCC2)C(=O)NCCN2CCc3cc(F)ccc32)cc1 [Compound 239, (S)-3-Cyclohexyl-N-[2-(5-fluoro-2,3-dihydro-indol-1-yl)-ethyl]-2-(4-methoxy-benzenesulfonylamino)-propionamide] | < 1000
